Measurements from ChEMBL document CHEMBL1136685, “Structure-activity relationship of cyclic peptide penta-c[Asp-His(6)-DPhe(7)-Arg(8)-Trp(9)-Lys]-NH(2) at the human melanocortin-1 and -4 receptors: His(6) substitution” (Bioorg Med Chem Lett, 2003).

What was measured:
[1] = target: T1, Melanocyte-stimulating hormone receptor (Homo sapiens, UniProt Q01726); experiment: Agonist activity at human melanocortin receptor (hMC1R).; type: functional
Target sequence in this assay (Q01726 whole entry): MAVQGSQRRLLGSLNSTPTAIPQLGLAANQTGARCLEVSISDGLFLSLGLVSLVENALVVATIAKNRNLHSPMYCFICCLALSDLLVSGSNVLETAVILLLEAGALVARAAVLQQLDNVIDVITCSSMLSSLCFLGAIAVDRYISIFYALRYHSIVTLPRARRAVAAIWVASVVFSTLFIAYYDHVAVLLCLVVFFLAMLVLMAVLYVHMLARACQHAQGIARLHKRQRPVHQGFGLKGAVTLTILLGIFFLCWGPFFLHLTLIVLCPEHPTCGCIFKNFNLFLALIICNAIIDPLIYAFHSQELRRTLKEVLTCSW

[2] = target: T2, Melanocortin receptor 4 (Homo sapiens, UniProt P32245); experiment: Agonist activity at human melanocortin receptor (hMC4R).; type: functional
T2 sequence (P32245 whole entry): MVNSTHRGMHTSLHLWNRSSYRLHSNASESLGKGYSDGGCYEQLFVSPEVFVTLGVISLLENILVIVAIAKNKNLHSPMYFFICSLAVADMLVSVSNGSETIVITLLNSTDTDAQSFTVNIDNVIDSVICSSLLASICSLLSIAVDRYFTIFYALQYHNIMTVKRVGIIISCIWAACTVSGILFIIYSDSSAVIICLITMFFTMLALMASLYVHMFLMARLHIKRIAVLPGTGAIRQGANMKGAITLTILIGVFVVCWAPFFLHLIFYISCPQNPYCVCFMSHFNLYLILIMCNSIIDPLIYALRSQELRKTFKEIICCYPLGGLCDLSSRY

[3] = target: T1, Melanocyte-stimulating hormone receptor; experiment: Agonistic activity against human melanocortin receptor (hMC1R) for cAMP accumulation at a concentration of 50 uM; type: functional
Target sequence in this assay (Q01726 whole entry, looked up): as the sequence (Q01726 whole entry) above

[4] = target: T2, Melanocortin receptor 4; experiment: Binding affinity towards human melanocortin receptor (hMC4R) using NDP-MSH as radioligand
[5] = target: T1, Melanocyte-stimulating hormone receptor; experiment: Binding affinity towards human melanocortin receptor (hMC1R) using NDP-MSH as radioligand
Target sequence in this assay (Q01726 whole entry): as above

[6] = target: T2, Melanocortin receptor 4; experiment: Agonistic activity against human melanocortin receptor (hMC4R) for cAMP accumulation; type: functional
[7] = target: Melanocortin receptor 3 (Homo sapiens, UniProt P41968); experiment: Agonistic activity against human melanocortin receptor (hMC3R) for cAMP accumulation at a concentration of 50 uM; type: functional
Chain of Melanocortin receptor 3 (P41968 whole entry): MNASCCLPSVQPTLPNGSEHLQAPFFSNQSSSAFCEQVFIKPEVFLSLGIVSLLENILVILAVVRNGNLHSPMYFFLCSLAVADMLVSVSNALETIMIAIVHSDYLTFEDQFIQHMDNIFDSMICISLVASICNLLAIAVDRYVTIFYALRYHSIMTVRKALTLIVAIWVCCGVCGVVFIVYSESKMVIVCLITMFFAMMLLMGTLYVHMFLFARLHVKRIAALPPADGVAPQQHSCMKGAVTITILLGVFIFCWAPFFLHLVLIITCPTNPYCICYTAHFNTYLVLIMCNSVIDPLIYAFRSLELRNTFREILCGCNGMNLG

[8] = target: Melanocortin receptor 5 (Homo sapiens, UniProt P33032); experiment: Agonistic activity against human melanocortin receptor (hMC5R) for cAMP accumulation at a concentration of 50 uM; type: functional
Chain of Melanocortin receptor 5 (P33032 whole entry): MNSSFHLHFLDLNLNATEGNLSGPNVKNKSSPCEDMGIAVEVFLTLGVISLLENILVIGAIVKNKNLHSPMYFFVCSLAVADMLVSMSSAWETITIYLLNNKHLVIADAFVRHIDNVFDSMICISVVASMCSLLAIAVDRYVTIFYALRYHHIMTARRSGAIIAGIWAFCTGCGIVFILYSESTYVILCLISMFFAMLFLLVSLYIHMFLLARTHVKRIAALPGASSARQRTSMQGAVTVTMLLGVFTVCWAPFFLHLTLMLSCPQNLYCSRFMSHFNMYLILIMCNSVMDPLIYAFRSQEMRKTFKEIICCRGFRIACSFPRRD

Compound	EC50 [1]	EC50 [2]	cAMP accumulation [3]	further results
CCCCC(=O)N[C@H]1CC(=O)NCCCC[C@@H](C(N)=O)NC(=O)[C@H](Cc2c[nH]c3ccccc23)NC(=O)[C@H](CCCN=C(N)N)NC(=O)[C@@H](Cc2ccccc2)NC(=O)[C@@]2(CCc3c(CC)cccc3C2)NC1=O	420 nM	8 nM		
CCCCC(=O)N[C@H]1CC(=O)NCCCC[C@@H](C(N)=O)NC(=O)[C@H](Cc2c[nH]c3ccccc23)NC(=O)[C@H](CCCN=C(N)N)NC(=O)[C@@H](Cc2ccccc2)NC(=O)[C@@H]2Cc3ccccc3CN2C1=O	5 nM	3 nM		
CCCC[C@H](NC(C)=O)C(=O)N[C@H]1CC(=O)NCCCC[C@@H](C(N)=O)NC(=O)[C@H](Cc2c[nH]c3ccccc23)NC(=O)[C@H](CCCN=C(N)N)NC(=O)[C@@H](Cc2ccccc2)NC(=O)[C@H](CCC(N)=O)NC1=O	0.3 nM	0.3 nM		
CCCCC(=O)N[C@H]1CC(=O)NCCCC[C@@H](C(N)=O)NC(=O)[C@H](Cc2c[nH]c3ccccc23)NC(=O)[C@H](CCCNC(=N)N)NC(=O)[C@@H](Cc2ccccc2)NC(=O)C2(Cc3ccccc3C2)NC1=O	370 nM	65 nM		
CCCCC(=O)N[C@H]1CC(=O)NCCCC[C@@H](C(N)=O)NC(=O)[C@H](Cc2c[nH]c3ccccc23)NC(=O)[C@H](CCCN=C(N)N)NC(=O)[C@@H](Cc2ccccc2)NC(=O)[C@H](Cc2ccc(C(F)(F)F)cc2)NC1=O	12 nM	2 nM		
CCCCC(=O)N[C@H]1CC(=O)NCCCC[C@@H](C(N)=O)NC(=O)[C@H](Cc2c[nH]c3ccccc23)NC(=O)[C@H](CCCN=C(N)N)NC(=O)[C@@H](Cc2ccccc2)NC(=O)C2(CCc3cc(Br)ccc3C2)NC1=O (mixture of isomers)		37 nM		
CCCCC(=O)N[C@H]1CC(=O)NCCCC[C@@H](C(N)=O)NC(=O)[C@H](Cc2c[nH]c3ccccc23)NC(=O)[C@H](CCCN=C(N)N)NC(=O)[C@@H](Cc2ccccc2)NC(=O)[C@@]2(CCc3c(cccc3OC)C2)NC1=O (mixture of isomers)	735 nM	5 nM		
CCCCC(=O)N[C@H]1CC(=O)NCCCC[C@@H](C(N)=O)NC(=O)[C@H](Cc2c[nH]c3ccccc23)NC(=O)[C@H](CCCN=C(N)N)NC(=O)[C@@H](Cc2ccccc2)NC(=O)[C@@]2(CCc3c(C)cccc3C2)NC1=O (mixture of isomers)		25 nM	80%	
CCCCC(=O)N[C@H]1CC(=O)NCCCC[C@@H](C(N)=O)NC(=O)[C@H](Cc2c[nH]c3ccccc23)NC(=O)[C@H](CCCN=C(N)N)NC(=O)[C@@H](Cc2ccccc2)NC(=O)[C@@]2(CCc3ccccc3C2)NC1=O (mixture of isomers)	900 nM	65 nM		
CCCCC(=O)N[C@H]1CC(=O)NCCCC[C@@H](C(N)=O)NC(=O)[C@H](Cc2c[nH]c3ccccc23)NC(=O)[C@H](CCCN=C(N)N)NC(=O)[C@@H](Cc2ccccc2)NC(=O)C2(CCc3cc(Cl)ccc3C2)NC1=O (mixture of isomers)		33 nM		
CCCCC(=O)N[C@H]1CC(=O)NCCCC[C@@H](C(N)=O)NC(=O)[C@H](Cc2c[nH]c3ccccc23)NC(=O)[C@H](CCCNC(=N)N)NC(=O)[C@@H](Cc2ccccc2)NC(=O)C2(CCc3c(cccc3C(C)C)C2)NC1=O (mixture of isomers)	480 nM	7 nM		
CCCCC(=O)N[C@H]1CC(=O)NCCCC[C@@H](C(N)=O)NC(=O)[C@H](Cc2c[nH]c3ccccc23)NC(=O)[C@H](CCCN=C(N)N)NC(=O)[C@@H](Cc2ccccc2)NC(=O)C2(CCc3c(cccc3N(C)C)C2)NC1=O (mixture of isomers)	480 nM	45 nM		
CCCCC(=O)N[C@H]1CC(=O)NCCCC[C@@H](C(N)=O)NC(=O)[C@H](Cc2c[nH]c3ccccc23)NC(=O)[C@H](CCCN=C(N)N)NC(=O)[C@@H](Cc2ccccc2)NC(=O)C2(CCc3cccc(Br)c3C2)NC1=O (mixture of isomers)		176 nM		
CCCCC(=O)N[C@H]1CC(=O)NCCCC[C@@H](C(N)=O)NC(=O)[C@H](Cc2c[nH]c3ccccc23)NC(=O)[C@H](CCCNC(=N)N)NC(=O)[C@@H](Cc2ccccc2)NC(=O)C2(CCc3ccc(Br)cc3C2)NC1=O (mixture of isomers)	140 nM	10 nM		
CCCCC(=O)N[C@H]1CC(=O)NCCCC[C@@H](C(N)=O)NC(=O)[C@H](Cc2c[nH]c3ccccc23)NC(=O)[C@H](CCCN=C(N)N)NC(=O)[C@@H](Cc2ccccc2)NC(=O)C2(CCc3c(Cl)cccc3C2)NC1=O (mixture of isomers)		9 nM		
CCCCC(=O)N[C@H]1CC(=O)NCCCC[C@@H](C(N)=O)NC(=O)[C@H](Cc2c[nH]c3ccccc23)NC(=O)[C@H](CCCN=C(N)N)NC(=O)[C@@H](Cc2ccccc2)NC(=O)C2(CCc3c(cccc3OC(C)C)C2)NC1=O (mixture of isomers)	1330 nM	7 nM		

Compound	EC50 [1]	EC50 [2]	cAMP accumulation [3]	further results
CCCCC(=O)N[C@H]1CC(=O)NCCCC[C@@H](C(N)=O)NC(=O)[C@H](Cc2c[nH]c3ccccc23)NC(=O)[C@H](CCCNC(=N)N)NC(=O)[C@@H](Cc2ccccc2)NC(=O)C2(CCc3c(cccc3OCC)C2)NC1=O (mixture of isomers)	1270 nM	35 nM		
CCCCC(=O)N[C@@H]1CC(=O)NCCCC[C@@H](C(N)=O)NC(=O)[C@H](Cc2c[nH]c3ccccc23)NC(=O)[C@@H](CCCN=C(N)N)NC(=O)[C@H](Cc2ccccc2)NC(=O)C2(CCc3c(Cl)cccc3C2)NC1=O (mixture of isomers)			30%	
CCCCC(=O)N[C@@H]1CC(=O)NCCCC[C@@H](C(N)=O)NC(=O)[C@H](Cc2c[nH]c3ccccc23)NC(=O)[C@@H](CCCN=C(N)N)NC(=O)[C@H](Cc2ccccc2)NC(=O)C2(CCc3cc(Br)ccc3C2)NC1=O (mixture of isomers)			60%	
CCCCC(=O)N[C@@H]1CC(=O)NCCCC[C@@H](C(N)=O)NC(=O)[C@H](Cc2c[nH]c3ccccc23)NC(=O)[C@@H](CCCN=C(N)N)NC(=O)[C@H](Cc2ccccc2)NC(=O)C2(CCc3cc(Cl)ccc3C2)NC1=O (mixture of isomers)			50%	
CCCCC(=O)N[C@@H]1CC(=O)NCCCC[C@@H](C(N)=O)NC(=O)[C@H](Cc2c[nH]c3ccccc23)NC(=O)[C@@H](CCCN=C(N)N)NC(=O)[C@H](Cc2ccccc2)NC(=O)C2(CCc3cccc(Br)c3C2)NC1=O (mixture of isomers)			60%	
CCCCC(=O)N[C@H]1CC(=O)NCCCC[C@@H](C(N)=O)NC(=O)[C@H](Cc2c[nH]c3ccccc23)NC(=O)[C@H](CCCN=C(N)N)NC(=O)[C@@H](Cc2ccccc2)NC(=O)C2(CCc3c(Cl)cccc3C2)NC1=O (single isomer, unassigned; form 1)				IC50 [4]: 15 nM; IC50 [5]: 5820 nM; EC50 [6]: 4 nM
CCCCC(=O)N[C@H]1CC(=O)NCCCC[C@@H](C(N)=O)NC(=O)[C@H](Cc2c[nH]c3ccccc23)NC(=O)[C@H](CCCN=C(N)N)NC(=O)[C@@H](Cc2ccccc2)NC(=O)C2(CCc3c(Br)cccc3C2)NC1=O (single isomer, unassigned; form 1)		15 nM		
CCCCC(=O)N[C@@H]1CC(=O)NCCCC[C@@H](C(N)=O)NC(=O)[C@H](Cc2c[nH]c3ccccc23)NC(=O)[C@@H](CCCN=C(N)N)NC(=O)[C@H](Cc2ccccc2)NC(=O)C2(CCc3c(Br)cccc3C2)NC1=O (single isomer, unassigned; form 1)			80%	
CCCCC(=O)N[C@@H]1CC(=O)NCCCC[C@@H](C(N)=O)NC(=O)[C@H](Cc2c[nH]c3ccccc23)NC(=O)[C@@H](CCCN=C(N)N)NC(=O)[C@H](Cc2ccccc2)NC(=O)C2(CCc3c(Cl)cccc3C2)NC1=O (single isomer, unassigned; form 1)			20%	cAMP accumulation [7]: 25%; cAMP accumulation [8]: 75%
CCCCC(=O)N[C@@H]1CC(=O)NCCCC[C@@H](C(N)=O)NC(=O)[C@H](Cc2c[nH]c3ccccc23)NC(=O)[C@@H](CCCNC(N)=O)NC(=O)[C@H](Cc2ccccc2)NC(=O)C2(CCc3c(Cl)cccc3C2)NC1=O (single isomer, unassigned; form 1)			0%	cAMP accumulation [7]: 0%; cAMP accumulation [8]: 0%
CCCCC(=O)N[C@H]1CC(=O)NCCCC[C@@H](C(N)=O)NC(=O)[C@H](Cc2c[nH]c3ccccc23)NC(=O)[C@H](CCCN=C(N)N)NC(=O)[C@@H](Cc2ccccc2)NC(=O)[C@@H]2c3ccccc3CN2C1=O (single isomer, unassigned; form 2)	3 nM	2 nM		
CCCCC(=O)N[C@H]1CC(=O)NCCCC[C@@H](C(N)=O)NC(=O)[C@H](Cc2c[nH]c3ccccc23)NC(=O)[C@H](CCCN=C(N)N)NC(=O)[C@@H](Cc2ccccc2)NC(=O)C2(CCc3c(Cl)cccc3C2)NC1=O (single isomer, unassigned; form 2)				EC50 [6]: 40 nM
CCCCC(=O)N[C@H]1CC(=O)NCCCC[C@@H](C(N)=O)NC(=O)[C@H](Cc2c[nH]c3ccccc23)NC(=O)[C@H](CCCN=C(N)N)NC(=O)[C@@H](Cc2ccccc2)NC(=O)C2(CCc3c(Br)cccc3C2)NC1=O (single isomer, unassigned; form 2)		41 nM		
CCCCC(=O)N[C@@H]1CC(=O)NCCCC[C@@H](C(N)=O)NC(=O)[C@H](Cc2c[nH]c3ccccc23)NC(=O)[C@@H](CCCN=C(N)N)NC(=O)[C@H](Cc2ccccc2)NC(=O)C2(CCc3c(Br)cccc3C2)NC1=O (single isomer, unassigned; form 2)			70%	
CCCCC(=O)N[C@@H]1CC(=O)NCCCC[C@@H](C(N)=O)NC(=O)[C@H](Cc2c[nH]c3ccccc23)NC(=O)[C@@H](CCCN=C(N)N)NC(=O)[C@H](Cc2ccccc2)NC(=O)C2(CCc3c(Cl)cccc3C2)NC1=O (single isomer, unassigned; form 2)			60%	cAMP accumulation [7]: 0%; cAMP accumulation [8]: 38%
CCCCC(=O)N[C@@H]1CC(=O)NCCCC[C@@H](C(N)=O)NC(=O)[C@H](Cc2c[nH]c3ccccc23)NC(=O)[C@@H](CCCNC(N)=O)NC(=O)[C@H](Cc2ccccc2)NC(=O)C2(CCc3c(Cl)cccc3C2)NC1=O (single isomer, unassigned; form 2)			0%	cAMP accumulation [7]: 0%; cAMP accumulation [8]: 0%
